pKd, pKi: −log10 of the molar value.
Columns and labels:
SV2A [1] = target: T1, SV2A (Macaca fascicularis, UniProt Q4R4X3); assay: Displacement PET studies of [^18F]UCB-H; format: in vivo, cynomolgus monkeys (Macaca fascicularis)
T1 construct: The current study evaluates [^18F]UCB-H pharmacokinetics in healthy NHPs; from tissue; host or cells: brain of living healthy cynomolgus monkeys (in vivo PET)
Procedure: All four non-human primates (NHP) underwent a 2-h (2 h) test and retest PET scan; two NHP underwent an additional 4-h (4 h) retest PET scan. Three NHP underwent one 4-h (4 h) displacement PET scan. Arterial blood sampling was performed during test and retest scans with PET imaging spaced by at least 3 weeks between each scan. To this end, the femoral artery opposite to the saphenous vein used for radioligand injection was cannulated. For the 2-h (2 h) scans, we collected in total 28 blood samples of 1 mL: 16 samples during the first 5 min followed by […] every 5 min and […] every 10 min. For the 4 h scans, we collected an additional 6 samples every 20 min during the last two hours (34 samples in total). Larger samples (2 – 3 mL) were collected at 5, 15, 30, 60, 90, 120 min (2 h) and at 180, 240 min (4 h) for metabolite analysis. Displacement of [^18F]UCB-H was done by intravenous (IV) administration 90 min after [^18F]UCB-H injection of a bolus of 30 mg/kg LEV, or of 80 µg/kg (≈250 nmol/kg) or 5 mg/kg (≈15 µmol/kg) of cold [^19F]-UCB-H. Full experimental design of all NHP is outlined in Additional file 1: Table 1.
Solvents and LEV (C8H14N2O2; MM 170.21 g/mol) were obtained at Sigma-Aldrich® (France), and [^19F]-UCB-H (C16H12F4N2O; MM 324.28 g/mol) was synthesised as previously described. Injectable solutions of [^19F]-UCB-H for displacement studies were prepared with a mixture of Tetrahydrofuran (THF), Médialipide® and glucose at 2.5% as previously described. LEV was dissolved in a glucose solution of 2.5% to reach a concentration of 90 mg/mL.
PET image analysis was performed using PMOD software version 3.8 (PMOD Technologies Ltd., Zurich, Suisse). After individual co-registration of PET-MR images, a cynomolgus atlas published by Ballanger and coworkers was normalized to PET images to extract time activity curves in different brain regions. Volumes of interest (VOI) were cerebral white matter (16.7 cm^3), striatum (0.24 cm^3), thalamus (0.89 cm^3), cerebellum (3.83 cm^3), frontal—(2.50 cm^3), parietal—(5.35 cm^3), and temporal (8.22 cm^3) cortex, and whole brain (72.2 cm^3) as a composite region of all regions in the atlas. [^18F]UCB-H pharmacokinetics were evaluated by analyzing the time activity curves of the test- and retest scans using 1- and 2-tissue compartment models (unconstrained and constrained with global K1/k2 coupled fit across all regions, further referred to as 2TCM and 2TCM-c), and Logan graphical analysis with a fixed t* at 60 min [33] using the arterial plasma input function corrected for radio-metabolites to derive the volume of distribution in each region. Percentage standard error (%SE) was estimated from the theoretical parameter covariance matrix. Only reliable estimates (%SE less than 25%) were included in the current analyses. For the three drug studies, percent displacement of the total activity in the whole brain was estimated relative to an average baseline constructed from the two 4 h baseline studies. Briefly, Standardized Uptake Value (SUV) time activity curves (TACs) were calculated for the two baseline and the three displacement studies. Then, each curve was normalized to the SUV at t = 90 min, corresponding to the timeframe immediately before the administration of the drugs in the displacement studies. Baseline curves were averaged and the percent displacement of total activity was calculated as (baseline-displacement)/baseline at a given time post drug administration (see “Results”).

SV2A [2] = test system: SV2A; set-up: method as in PMID 30084043, PMID 31728839; settings: cited from earlier work
SV2A [3] = target: SV2A; set-up: method as in PMID 31728839; settings: human brain; read-out: in vitro Ki; cited from earlier work
SV2A [4] = target: SV2A; set-up: method as in PMID 26848175; settings: NHP; read-out: in vivo KD; cited from earlier work

T1 sequence (Q4R4X3 whole entry): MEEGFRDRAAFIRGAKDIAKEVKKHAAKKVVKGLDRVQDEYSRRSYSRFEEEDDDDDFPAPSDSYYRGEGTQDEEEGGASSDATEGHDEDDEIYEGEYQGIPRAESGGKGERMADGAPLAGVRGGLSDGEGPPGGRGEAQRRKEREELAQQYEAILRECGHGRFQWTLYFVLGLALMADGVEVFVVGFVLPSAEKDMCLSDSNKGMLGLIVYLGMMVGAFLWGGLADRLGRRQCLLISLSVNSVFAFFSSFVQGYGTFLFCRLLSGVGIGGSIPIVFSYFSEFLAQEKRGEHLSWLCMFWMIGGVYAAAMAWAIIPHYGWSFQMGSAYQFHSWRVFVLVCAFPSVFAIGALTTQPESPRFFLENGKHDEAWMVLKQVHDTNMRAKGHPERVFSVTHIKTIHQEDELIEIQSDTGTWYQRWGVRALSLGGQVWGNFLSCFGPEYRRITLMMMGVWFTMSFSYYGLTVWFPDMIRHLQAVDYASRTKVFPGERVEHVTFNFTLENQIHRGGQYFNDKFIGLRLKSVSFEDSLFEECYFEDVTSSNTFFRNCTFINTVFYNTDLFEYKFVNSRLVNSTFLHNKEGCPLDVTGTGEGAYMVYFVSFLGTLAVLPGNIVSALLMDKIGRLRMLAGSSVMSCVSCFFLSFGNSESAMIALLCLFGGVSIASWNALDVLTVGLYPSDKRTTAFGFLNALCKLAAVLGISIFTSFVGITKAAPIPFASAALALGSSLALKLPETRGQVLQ

For CC[C@@H](C(N)=O)N1CCCC1=O [LEV, levetiracetam, reference compound], which “displacement of [^18F]UCB-H total uptake” value (SV2A [1]; 30 mg/kg i.v. at 90 min, estimated 150 min (2.5 h) after injection) is on record?
The value was ~ 40%.

And the receptor occupancy at 30 mg/kg (SV2A [1]; cynomolgus monkey, iv, read-out: SV2A occupancy)?
The receptor occupancy at 30 mg/kg was 75 to 80%.

With Cc1cnccc1CN1C[C@@H](c2cc(F)cc([18F])c2)CC1=O [[^18F]MNI-1126] as the molecule, how does the “affinity” value (SV2A [2]) read?
The value was “high affinity”.

With Cc1cnccc1CN1CC(c2cc(F)cc([18F])c2)CC1=O (stereo not drawn) [[^18F]MNI-1128] as the molecule, how does the “affinity” value (SV2A [2]) read?
Its value is “low affinity”.

Which results are given for O=C1CC(c2cc(F)c(F)c(F)c2)CN1Cc1ccncc1F (stereo not drawn) [[^19F]UCB-H]?
displacement of [^18F]UCB-H total uptake (SV2A [1]; 5 mg/kg i.v. at 90 min, estimated 35 min after injection of cold compound): 50%; SV2A occupancy expected (SV2A [1]; 5 mg/kg, KD 30 nM): > 98%; maximum free concentration in brain (SV2A [1]; after 5.0 mg/kg, based on brain uptake curves and fND ~6%): ~2.5 µM; pKi (SV2A [3]): 8.05; pKd (SV2A [4]): 7.52
